How the values were obtained:
[1] = Antioxidant activity assessed as DPPH-radical scavenging activity at 1 mM incubated for 30 mins under dark condition; type: functional
[2] = biological target: T1, Tyrosinase (Agaricus bisporus, UniProt O42713); experiment: Inhibition of mushroom tyrosinase using L-tyrosine as substrate measured after 30 mins
T1 sequence (O42713 whole entry): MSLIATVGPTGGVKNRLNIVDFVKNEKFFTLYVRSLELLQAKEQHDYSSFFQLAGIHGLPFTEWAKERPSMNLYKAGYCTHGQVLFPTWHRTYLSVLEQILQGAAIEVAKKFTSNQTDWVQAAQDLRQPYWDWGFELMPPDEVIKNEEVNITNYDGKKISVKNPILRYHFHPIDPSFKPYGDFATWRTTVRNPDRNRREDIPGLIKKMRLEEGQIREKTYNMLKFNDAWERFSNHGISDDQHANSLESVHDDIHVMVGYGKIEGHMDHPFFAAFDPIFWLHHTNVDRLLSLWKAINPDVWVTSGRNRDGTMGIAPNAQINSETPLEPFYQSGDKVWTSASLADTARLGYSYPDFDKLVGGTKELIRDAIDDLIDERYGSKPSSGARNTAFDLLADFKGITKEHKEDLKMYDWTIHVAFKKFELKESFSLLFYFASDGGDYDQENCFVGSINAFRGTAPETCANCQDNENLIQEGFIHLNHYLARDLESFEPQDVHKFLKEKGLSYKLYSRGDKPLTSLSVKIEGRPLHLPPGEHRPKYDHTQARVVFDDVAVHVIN

[3] = biological target: T2, Tyrosinase (Agaricus bisporus) (UniProt O42713); experiment: Competitive inhibition of mushroom tyrosinase using varying levels of L-tyrosine as substrate measured after 30 mins by Lineweaver-Burk plot analysis
T2 sequence (whole entry): T1 sequence (O42713 whole entry)

[4] = Cytotoxicity against mouse B16F10 cells assessed as cell viability at 5 uM after 24 hrs by MTT assay relative to control; type: cell-based, B16-F10; conditions: read-out: Activity
[5] = Cytotoxicity against mouse B16F10 cells assessed as cell viability at 10 uM after 24 hrs by MTT assay relative to control; type: cell-based, B16-F10; conditions: read-out: Activity
[6] = Cytotoxicity against mouse B16F10 cells assessed as cell viability at 25 uM after 24 hrs by MTT assay relative to control; type: cell-based, B16-F10; conditions: read-out: Activity
[7] = tested on: B16-F10; experiment: Antimelanogenic activity in mouse B16F10 cells assessed as inhibition of alpha-MSH-stimulated melanin synthesis measured after 24 hrs by ELISA; type: functional, cell-based
[8] = biological target: T3, Tyrosinase (Mus musculus) (UniProt P11344); experiment: Inhibition of tyrosinase in alpha-MSH stimulated mouse B16F10 cells using L-dopa as substrate pretreated for 24 hrs followed by substrate addition and measured after 30 mins
T3 sequence (whole entry): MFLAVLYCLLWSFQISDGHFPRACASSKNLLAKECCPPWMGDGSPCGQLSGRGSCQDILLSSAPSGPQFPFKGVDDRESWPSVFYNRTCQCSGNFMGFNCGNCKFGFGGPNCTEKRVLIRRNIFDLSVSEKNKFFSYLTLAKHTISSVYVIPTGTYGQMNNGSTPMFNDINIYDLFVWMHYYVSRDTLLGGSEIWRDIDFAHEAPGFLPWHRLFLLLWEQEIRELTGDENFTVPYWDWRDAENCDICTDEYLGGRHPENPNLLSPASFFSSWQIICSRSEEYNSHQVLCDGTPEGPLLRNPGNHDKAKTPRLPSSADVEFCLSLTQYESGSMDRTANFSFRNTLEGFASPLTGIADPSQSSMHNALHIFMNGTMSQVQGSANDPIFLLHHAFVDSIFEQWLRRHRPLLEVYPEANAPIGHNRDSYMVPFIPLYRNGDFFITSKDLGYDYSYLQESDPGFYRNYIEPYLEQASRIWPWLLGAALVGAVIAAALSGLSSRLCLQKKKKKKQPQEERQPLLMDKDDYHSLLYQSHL

[9] = biological target: T2, Tyrosinase (Agaricus bisporus); conditions: 500 uM
Description: Inhibition of mushroom tyrosinase at 500 uM using L-tyrosine as substrate measured after 30 mins relative to control

Compound | Activity [1] [%] | further results
O=C1ON=C(c2ccccc2)/C1=C/c1ccc(O)c(O)c1 | 98.6 | 
COc1ccc(/C=C2\C(=O)ON=C2c2ccccc2)cc1 | 47.2 | 
O=C1ON=C(c2ccccc2)/C1=C/c1ccc(O)cc1O | 46 | IC50 [2]: 32.1 µM
O=C1ON=C(c2ccccc2)/C1=C/c1ccccc1O | 74.4 | 
COc1ccc(/C=C2\C(=O)ON=C2c2ccccc2)cc1OC | 49.8 | 
COc1ccc(/C=C2\C(=O)ON=C2c2ccccc2)cc1O | 54.2 | 
O=C1ON=C(c2ccccc2)/C1=C/c1ccc(O)c(Br)c1 | 82.6 | IC50 [2]: 14.6 µM; inhibition [3]: Dose-dependent effect; viability at 24 h, 5 µM [4]: 100%; viability at 24 h, 10 µM [5]: 98.7%; viability at 24 h, 25 µM [6]: 96.3%; inhibition [7]: Dose-dependent effect; inhibition [8]: Dose-dependent effect
O=C1ON=C(c2ccccc2)/C1=C/c1ccc(O)cc1 | 48.4 | 
COc1ccc(/C=C2\C(=O)ON=C2c2ccccc2)c(OC)c1 | 41.8 | 
O=C1O[C@H]([C@@H](O)CO)C(O)=C1O | 87.5 | 
COc1cc(/C=C2\C(=O)ON=C2c2ccccc2)ccc1O | 75.3 | 
CCOc1ccc(/C=C2\C(=O)ON=C2c2ccccc2)cc1O | 66.4 | 
COc1cc(/C=C2\C(=O)ON=C2c2ccccc2)cc(OC)c1O | 94.8 | 
OC[C@H]1O[C@@H](Oc2ccc(O)cc2)[C@H](O)[C@@H](O)[C@@H]1O |  | inhibition [9]: 32.6%

— ChEMBL document CHEMBL4229406, “The tyrosinase inhibitory effects of isoxazolone derivatives with a (Z)-β-phenyl-α, β-unsaturated carbonyl scaffold” (Bioorg Med Chem, 2018)
